Assay results published in US7390910B2, “Compounds for treating tumors” (priority 2003, dated 2008).
Marks after values point to notes of the source that are not given here. *1 amine or outer side, *2 acyl side, *3 side chain or, on linkers, in order; H or OH if unused. Where a SMILES comes first, the peptide text is derived from it. [ ]: non-standard residue; d: D form. The star is where a group is joined. NMePhe(β,β-Me2) = CN[C@H](C(=O)O)C(C)(C)c1ccccc1; X1 = C/C(=C\[C@H](C(C)C)N(C)[*:1])C(=O)[*:2]; Tle = CC(C)(C)[C@H](N)C(=O)O; NHBn = c1ccc(CN*)cc1

Tests used:
[1] = test system: bovine microtubule-associated protein (MAP)-rich tubulin; assay type: biochemical
Outline: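 MAP-rich bovine tubulin at 1.5 mg/ml final was dissolved in cold PEM buffer (80 mM Na-PIPES pH 6.9, 1 mM MgCl2, 1 mM EGTA) with 1 mM GTP, then centrifuged at 12,000×g for 10 min at 4° C. Aliquots of 100 μl were added quickly to a low-volume 96-well plate holding duplicate 10 μl compound samples. Absorbance at 340 nm was read each minute for 60 min at 24° C.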

[2] = test system: Colo205; assay: Cell survival assay (SRB), Colo205; assay type: cell-based; details: Colo205 cells, 3 days
Protocol: (§1) Cell Survival Assay: Standard Pharmacological Test Procedure. […] Compounds are incubated with cells for 3 days.

[3] = test system: KB85; assay: cells; assay type: cell-based; details: for IC50: 3 days, SRB; for inhibition at 3 µM: 3000 nM
Protocol: as §1

[4] = test system: KBV1; assay: cells; assay type: cell-based; details: for IC50: 3 days, SRB; for inhibition at 3 µM: KB-V1, 3000 nM
Protocol: as §1

[5] = test system: KB cells; assay: cells; assay type: cell-based; details: for IC50: 3 days, SRB; for inhibition at 3 µM: 3000 nM
Protocol: as §1

[6] = test system: Human Melanoma Carcinoma Lox; assay: Growth of tumors in nude mice (LOX xenograft); assay type: in vivo, athymic nu/nu female mice
Source text: Growth of Tumors in Nude Mice. […] A p-value ≦0.05 indicates a statistically significant reduction in relative tumor growth of treated group compared to that of the vehicle control group.

[7] = test system: HCT-15; assay: Cell survival assay (SRB), HCT-15; assay type: cell-based; details: HCT-15 cells
Protocol: as §1

[8] = test system: NCl-H1299; assay: Cell survival assay (SRB), NCl-H1299; assay type: cell-based; details: NCl-H1299 cells
Protocol: as §1

[9] = test system: LOX; assay: Cell survival assay (SRB), LOX; assay type: cell-based, human; details: LOX cells
Protocol: as §1

C/C(=C\[C@H](C(C)C)N(C)C(=O)[C@@H](NC(=O)[C@@H](O)C(C)(C)c1ccccc1)C(C)(C)C)C(=O)O [Example 107, (E,4S)-4-[{N-[(2S)-2-hydroxy-3-methyl-3-phenylbutanoyl]-3-methyl-L-valyl}(methyl)amino]-2,5-dimethyl-2-hexenoic acid]
Tubulin Polym. % inhibition at 0.3 uM [1]: 21%
IC50 ([2]; Homo sapiens, COLO 205, 72 h): > 1000 nM
IC50 ([3]; 72 h): > 3000 nM
IC50 ([4]; Homo sapiens, KB-V1, 72 h): > 3000 nM
IC50 ([5]; Homo sapiens, KB, 72 h): > 3000 nM

CN[C@H](C(=O)N[C@H](C(=O)N(C)[C@H](/C=C(\C)C(=O)N1CCC[C@@H]1C(=O)N1CCC[C@@H]1C(=O)NCc1ccccc1)C(C)C)C(C)(C)C)C(C)(C)c1ccccc1 [Example 28, 1-{(2E,4S)-2,5-dimethyl-4-[methyl(N-methyl-3-phenyl-L-valyl-3-methyl-L-valyl)amino]hex-2-enoyl}-D-prolyl-N-benzyl-D-prolinamide] (H-[NMePhe(β,β-Me2)][Tle][X1][dP][dP]-NHBn)
Tubulin Polym. % inhibition at 0.3 uM [1]: 56(3) %
IC50 ([2]; Homo sapiens, COLO 205, 72 h): 0.25 nM
IC50 ([3]; 72 h): 21.9 nM
inhibition at 3 µM ([4]; Homo sapiens): 14%
IC50 ([5]; Homo sapiens, KB, 72 h): 1.07 nM
% T/C on day 7 ([6]; 10 mg/kg IV on days 1, 5, 9): 10%
% T/C on day 10 ([6]; 10 mg/kg IV on days 1, 5, 9, day 10): 4%

CCOC(=O)/C(C)=C/[C@H](C(C)C)N(C)C(=O)[C@@H](NC(=O)C(OC)C(C)(C)c1ccccc1)C(C)(C)C (stereo partly drawn) [Example 104, Ethyl (E,4S)-4-[{(2S)-2-[(2-methoxy-3-methyl-3-phenylbutanoyl)amino]-3,3-dimethylbutanoyl}(methyl)amino]-2,5-dimethyl-2-hexenoate]
Tubulin Polym. % inhibition at 0.3 uM [1]: 38%
IC50 ([2]; Homo sapiens, COLO 205, 72 h): > 1000 nM
IC50 ([3]; 72 h): 2130 nM
IC50 [3]: 3000 nM
IC50 [4]: 3000 nM
IC50 ([4]; Homo sapiens, KB-V1, 72 h): 2400 nM
IC50 [5]: 3000 nM
IC50 ([5]; Homo sapiens, KB, 72 h): 1730 nM

(2E,4S)-2,5-dimethyl-4-(methyl{3-methyl-N-[(2S)-3-methyl-2-(methylamino)-3-phenylbutyl]-L-valyl}amino)-2-hexenoic acid [Example 87]
IC50 [7]: 759 nM
IC50 [8]: 295 nM
Tubulin Polym. % inhibition at 0.3 uM [1]: 28%
IC50 [9]: 151 nM
IC50 [3]: 312 nM
KBV1 % inhibition @ 3000 nM [4]: 14%(2)
IC50 [5]: 104 nM

CN[C@H](C(=O)N[C@H](C(=O)N(C)[C@H](/C=C/c1nnn[nH]1)C(C)C)C(C)(C)C)C(C)(C)c1ccccc1 [Example 86, (2S)-N-[(1S,2E)-1-isopropyl-3-(1H-tetraazol-5-yl)-2-propenyl]-N,3,3-trimethyl-2-{[(2S)-3-methyl-2-(methylamino)-3-phenylbutanoyl]amino}butanamide]
Tubulin Polym. % inhibition at 0.3 uM [1]: 31%
IC50 ([2]; Homo sapiens, COLO 205, 72 h): 71 nM
IC50 ([3]; 72 h): 1820 nM
inhibition at 3 µM ([4]; Homo sapiens): 5%
IC50 ([5]; Homo sapiens, KB, 72 h): 1150 nM

CN[C@H](C(=O)N[C@H](C(=O)N(C)[C@H](/C=C(\C)C(=O)N1CCC[C@H]1[C@H](OC)[C@@H](C)C(=O)OC)C(C)C)C(C)(C)C)C(C)(C)c1ccccc1 [Example 30, N,β,β-trimethyl-L-phenylalanyl-N^1-((1S,2E)-4-{(2S)-2-[(1R,2R)-1,3-dimethoxy-2-methyl-3-oxopropyl]pyrrolidin-1-yl}-1-isopropyl-3-methyl-4-oxobut-2-enyl)-N^1,3-dimethyl-L-valinamide]
Tubulin Polym. % inhibition at 0.3 uM [1]: 45%
IC50 ([3]; 72 h): 6 nM
IC50 ([4]; Homo sapiens, KB-V1, 72 h): 96 nM
IC50 ([5]; Homo sapiens, KB, 72 h): 3.3 nM
% T/C on day 7 ([6]; 5 mg/kg IV on days 1, 5, 9): 11%
% T/C on day 14 ([6]; 5 mg/kg IV on days 1, 5, 9, day 14): 3%

C/C(=C\[C@H](C(C)C)N(C)C(=O)[C@@H](NC(=O)[C@@H](C)C(C)(C)c1ccccc1)C(C)(C)C)C(=O)O [Example 92, (E,4S)-4-[((2S)-2-{[(2S)-2,3-dimethyl-3-phenylbutanoyl]amino}-3,3-dimethylbutanoyl)(methyl)amino]-2,5-dimethyl-2-hexenoic acid]
IC50 ([7]; Homo sapiens): 1380 nM
IC50 [8]: 1200 nM
Tubulin Polym. % inhibition at 0.3 uM [1]: 94%
IC50 ([9]; Homo sapiens): 1070 nM
IC50 ([3]; 72 h): 990 nM
inhibition at 3 µM ([4]; Homo sapiens): 30%
IC50 ([5]; Homo sapiens, KB, 72 h): 861 nM

(E,4S)-4-[((2S)-2-{[(2S)-2-azido-3-methyl-3-phenylbutanoyl]amino}-3,3-dimethylbutanoyl)(methyl)amino]-2,5-dimethyl-2-hexenoic acid and (E,4S)-4-[((2S)-2-{[(2R)-2-azido-3-methyl-3-phenylbutanoyl]amino}-3,3-dimethylbutanoyl)(methyl)amino]-2,5-dimethyl-2-hexenoic acid [Example 94]
Tubulin Polym. % inhibition at 0.3 uM [1]: 73%
IC50 [2]: 460 nM
IC50 [3]: 1330 nM
KBV1 % inhibition @ 3000 nM [4]: 30%(2)
IC50 [5]: 1300 nM

CO[C@H](C(=O)N[C@H](C(=O)N(C)[C@H](/C=C(\C)C(=O)O)C(C)C)C(C)(C)C)C(C)(C)c1ccccc1 [Example 105, (E,4S)-4-[{N-[(2S)-2-methoxy-3-methyl-3-phenylbutanoyl]-3-methyl-L-valyl}(methyl)amino]-2,5-dimethyl-2-hexenoic acid]
Tubulin Polym. % inhibition at 0.3 uM [1]: 64%
IC50 ([2]; Homo sapiens, COLO 205, 72 h): 1740 nM
IC50 ([9]; Homo sapiens): 1740 nM
inhibition at 3 µM [3]: 21%
inhibition at 3 µM ([4]; Homo sapiens): 0%
inhibition at 3 µM ([5]; Homo sapiens, 72 h): 43%
IC50 ([5]; Homo sapiens, KB, 72 h): 2690 nM

CN[C@H](C(=O)N[C@H](C(=O)N(C)[C@H](/C=C(\C)C(=O)NO)C(C)C)C(C)(C)C)C(C)(C)c1ccccc1 [Example 25, (E,4S)-4-[((2S)-3,3-dimethyl-2-{[(2S)-3-methyl-2-(methylamino)-3-phenylbutanoyl]amino}butanoyl)(methyl)amino]-N-hydroxy-2,5-dimethyl-2-hexenamide]
Tubulin Polym. % inhibition at 0.3 uM [1]: 75%
IC50 ([2]; Homo sapiens, COLO 205, 72 h): 20 nM
IC50 ([3]; 72 h): 227 nM
inhibition at 3 µM ([4]; Homo sapiens): 7%
IC50 ([5]; Homo sapiens, KB, 72 h): 39 nM

CCOC(=O)/C(C)=C/[C@H](C(C)C)N(C)C(=O)[C@@H](NC(=O)[C@@H](C)C(C)(C)c1ccccc1)C(C)(C)C [Example 91, Ethyl (E,4S)-4-[((2S)-2-{[(2S)-2,3-dimethyl-3-phenylbutanoyl]amino}-3,3-dimethylbutanoyl)(methyl)amino]-2,5-dimethyl-2-hexenoate]
Tubulin Polym. % inhibition at 2 uM ([1]; 2 uM): 84**** %
IC50 ([2]; Homo sapiens, COLO 205, 72 h): > 1000 nM
IC50 ([3]; 72 h): > 3000 nM
IC50 ([4]; Homo sapiens, KB-V1, 72 h): > 3000 nM
inhibition at 3 µM ([5]; Homo sapiens, 72 h): 21%

C/C(=C\[C@H](C(C)C)N(C)C(=O)[C@@H](NC(=O)C(C(C)(C)c1ccccc1)S(C)(=O)=O)C(C)(C)C)C(=O)O (stereo partly drawn) [Example 103, (E,4S)-4-[((2S)-3,3-dimethyl-2-{[3-methyl-2-methylsulfonyl-3-phenylbutanoyl]amino}butanoyl)(methyl)amino]-2,5-dimethyl-2-hexenoic acid]
Tubulin Polym. % inhibition at 0.3 uM [1]: 80%
IC50 ([2]; Homo sapiens, COLO 205, 72 h): 760 nM
inhibition at 3 µM [3]: 30%
IC50 ([3]; 72 h): 1660 nM
inhibition at 3 µM ([4]; Homo sapiens): 5%
IC50 ([5]; Homo sapiens, KB, 72 h): 1750 nM

CO[C@@H](C(=O)N[C@H](C(=O)N(C)[C@H](/C=C(\C)C(=O)O)C(C)C)C(C)(C)C)C(C)(C)c1ccccc1 [Example 106, (E,4S)-4-[{N-[(2R)-2-methoxy-3-methyl-3-phenylbutanoyl]-3-methyl-L-valyl}(methyl)amino]-2,5-dimethyl-2-hexenoic acid]
Tubulin Polym. % inhibition at 0.3 uM [1]: 54%
IC50 ([2]; Homo sapiens, COLO 205, 72 h): 930 nM
IC50 ([3]; 72 h): 1230 nM
inhibition at 3 µM ([4]; Homo sapiens): 22%
IC50 ([5]; Homo sapiens, KB, 72 h): 1420 nM

CN[C@H](C(=O)N[C@H](C(=O)N(C)[C@H](/C=C(\C)C(=O)N1CCN(C)CC1)C(C)C)C(C)(C)C)C(C)(C)c1ccccc1 [Example 26, N,β,β-trimethyl-L-phenylalanyl-N^1-[(1S,2E)-1-isopropyl-3-methyl-4-(4-methyl-1-piperazinyl)-4-oxo-2-butenyl]-N^1,3-dimethyl-L-valinamide]
Tubulin Polym. % inhibition at 0.3 uM [1]: 71(2) %
IC50 ([9]; Homo sapiens): 46 nM
IC50 ([3]; 72 h): 60 nM
IC50 ([4]; Homo sapiens, KB-V1, 72 h): 2330 nM
IC50 ([5]; Homo sapiens, KB, 72 h): 33 nM
% T/C on day 7 ([6]; 15 mg/kg IV on days 1, 5, 9): 4%

CSC(C(=O)N[C@H](C(=O)N(C)[C@H](/C=C(\C)C(=O)O)C(C)C)C(C)(C)C)C(C)(C)c1ccccc1 (stereo partly drawn) [Example 102, (E,4S)-4-[((2S)-3,3-dimethyl-2-{[3-methyl-2-methylsulfanyl-3-phenylbutanoyl]amino}butanoyl)(methyl)amino]-2,5-dimethyl-2-hexenoic acid]
Tubulin Polym. % inhibition at 0.3 uM [1]: 79%
IC50 ([2]; Homo sapiens, COLO 205, 72 h): 280 nM
IC50 ([3]; 72 h): 1150 nM
KBV1 % inhibition @6000 ([4]; @6000): 40%@6000
IC50 ([5]; Homo sapiens, KB, 72 h): 693 nM

CN[C@H](C(=O)N[C@H](C(=O)N(C)[C@H](/C=C(\C)C(=O)N1CCC[C@H]1[C@H](OC)[C@@H](C)C(=O)N[C@@H](Cc1ccccc1)c1nccs1)C(C)C)C(C)(C)C)C(C)(C)c1ccccc1 [Example 29]
Tubulin Polym. % inhibition at 0.3 uM [1]: 62%
IC50 [3]: 4.1 nM
IC50 [4]: 180 nM
IC50 [5]: 0.75 nM
% T/C on day 7 ([6]; 10 mg/kg IV on days 1, 5, 9): 14%
% T/C on day 9 ([6]; 10 mg/kg IV on days 1, 5, 9, day 9): 9%

C/C(=C\[C@H](C(C)C)N(C)C(=O)[C@@H](NC(=O)[C@H](O)C(C)(C)c1ccccc1)C(C)(C)C)C(=O)O [Example 108, (E,4S)-4-[{N-[(2R)-2-hydroxy-3-methyl-3-phenylbutanoyl]-3-methyl-L-valyl}(methyl)amino]-2,5-dimethyl-2-hexenoic acid]
Tubulin Polym. % inhibition at 0.3 uM [1]: 21%
IC50 ([2]; Homo sapiens, COLO 205, 72 h): > 1000 nM
IC50 ([3]; 72 h): > 3000 nM
IC50 ([4]; Homo sapiens, KB-V1, 72 h): > 3000 nM
IC50 ([5]; Homo sapiens, KB, 72 h): > 3000 nM
